Experimental data from ChEMBL document CHEMBL5226302, “Small-Molecule Inhibitors Targeting the Canonical WNT Signaling Pathway for the Treatment of Cancer” (J Med Chem, 2021).
Values after ≈ are worked out from the molar mass of the structure shown.

Assays:
[1] = Inhibition of Wnt pathway (unknown origin); parameters: species or system Homo sapiens
[2] = Plasma concentration in mouse at 5 mg/kg, po measured after 24 hr; format: ADME, organism-based
[3] = target: Catenin beta-1/Transcription factor 7 (Homo sapiens, UniProt P35222+P36402); assay: Inhibition of beta catenin/TCF (unknown origin) by immunoprecipitation method; format: protein assay
Catenin beta-1/Transcription factor 7, sequence (P36402 whole entry): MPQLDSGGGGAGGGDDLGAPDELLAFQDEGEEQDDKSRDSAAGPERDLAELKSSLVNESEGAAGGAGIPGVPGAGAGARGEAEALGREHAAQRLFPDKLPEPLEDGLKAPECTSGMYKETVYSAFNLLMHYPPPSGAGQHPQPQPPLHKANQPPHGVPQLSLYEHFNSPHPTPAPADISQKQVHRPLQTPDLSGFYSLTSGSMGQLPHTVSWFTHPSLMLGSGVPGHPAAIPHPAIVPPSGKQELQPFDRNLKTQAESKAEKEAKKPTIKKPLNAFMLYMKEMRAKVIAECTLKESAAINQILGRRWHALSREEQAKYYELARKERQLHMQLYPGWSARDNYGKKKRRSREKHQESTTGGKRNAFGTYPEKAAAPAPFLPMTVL
Catenin beta-1/Transcription factor 7, sequence (P35222 whole entry): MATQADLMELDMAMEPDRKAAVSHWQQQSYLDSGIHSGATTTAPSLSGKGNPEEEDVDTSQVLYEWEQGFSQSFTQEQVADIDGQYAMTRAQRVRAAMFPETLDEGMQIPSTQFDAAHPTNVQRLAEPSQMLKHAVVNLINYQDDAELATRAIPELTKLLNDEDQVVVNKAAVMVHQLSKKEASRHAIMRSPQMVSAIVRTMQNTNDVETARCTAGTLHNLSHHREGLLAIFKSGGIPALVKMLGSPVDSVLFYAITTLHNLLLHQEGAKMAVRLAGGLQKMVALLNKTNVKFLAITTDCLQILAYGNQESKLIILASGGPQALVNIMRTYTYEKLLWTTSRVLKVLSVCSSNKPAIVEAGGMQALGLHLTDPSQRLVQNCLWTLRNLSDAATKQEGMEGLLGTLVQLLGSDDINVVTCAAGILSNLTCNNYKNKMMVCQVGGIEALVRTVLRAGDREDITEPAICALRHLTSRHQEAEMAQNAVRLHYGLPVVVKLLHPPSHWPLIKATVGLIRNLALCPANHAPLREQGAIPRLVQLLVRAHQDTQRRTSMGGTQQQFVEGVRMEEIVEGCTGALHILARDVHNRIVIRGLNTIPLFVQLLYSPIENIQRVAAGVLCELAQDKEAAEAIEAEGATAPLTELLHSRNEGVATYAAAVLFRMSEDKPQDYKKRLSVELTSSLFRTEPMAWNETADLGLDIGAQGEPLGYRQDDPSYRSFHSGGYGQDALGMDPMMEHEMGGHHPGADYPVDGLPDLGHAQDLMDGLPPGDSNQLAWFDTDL

[4] = Inhibition of TBC (unknown origin); parameters: species or system Homo sapiens
[5] = Half life of compound in PBS buffer; format: physicochemical
HeLa = assay: Antiproliferative activity against human HeLa cell line assessed as cell growth inhibition; format: functional, cell-based
[6] = target: T1, Poly [ADP-ribose] polymerase tankyrase-1 (Homo sapiens, UniProt O95271); assay: Inhibition of TNKS1 (unknown origin)
T1 sequence (O95271 whole entry): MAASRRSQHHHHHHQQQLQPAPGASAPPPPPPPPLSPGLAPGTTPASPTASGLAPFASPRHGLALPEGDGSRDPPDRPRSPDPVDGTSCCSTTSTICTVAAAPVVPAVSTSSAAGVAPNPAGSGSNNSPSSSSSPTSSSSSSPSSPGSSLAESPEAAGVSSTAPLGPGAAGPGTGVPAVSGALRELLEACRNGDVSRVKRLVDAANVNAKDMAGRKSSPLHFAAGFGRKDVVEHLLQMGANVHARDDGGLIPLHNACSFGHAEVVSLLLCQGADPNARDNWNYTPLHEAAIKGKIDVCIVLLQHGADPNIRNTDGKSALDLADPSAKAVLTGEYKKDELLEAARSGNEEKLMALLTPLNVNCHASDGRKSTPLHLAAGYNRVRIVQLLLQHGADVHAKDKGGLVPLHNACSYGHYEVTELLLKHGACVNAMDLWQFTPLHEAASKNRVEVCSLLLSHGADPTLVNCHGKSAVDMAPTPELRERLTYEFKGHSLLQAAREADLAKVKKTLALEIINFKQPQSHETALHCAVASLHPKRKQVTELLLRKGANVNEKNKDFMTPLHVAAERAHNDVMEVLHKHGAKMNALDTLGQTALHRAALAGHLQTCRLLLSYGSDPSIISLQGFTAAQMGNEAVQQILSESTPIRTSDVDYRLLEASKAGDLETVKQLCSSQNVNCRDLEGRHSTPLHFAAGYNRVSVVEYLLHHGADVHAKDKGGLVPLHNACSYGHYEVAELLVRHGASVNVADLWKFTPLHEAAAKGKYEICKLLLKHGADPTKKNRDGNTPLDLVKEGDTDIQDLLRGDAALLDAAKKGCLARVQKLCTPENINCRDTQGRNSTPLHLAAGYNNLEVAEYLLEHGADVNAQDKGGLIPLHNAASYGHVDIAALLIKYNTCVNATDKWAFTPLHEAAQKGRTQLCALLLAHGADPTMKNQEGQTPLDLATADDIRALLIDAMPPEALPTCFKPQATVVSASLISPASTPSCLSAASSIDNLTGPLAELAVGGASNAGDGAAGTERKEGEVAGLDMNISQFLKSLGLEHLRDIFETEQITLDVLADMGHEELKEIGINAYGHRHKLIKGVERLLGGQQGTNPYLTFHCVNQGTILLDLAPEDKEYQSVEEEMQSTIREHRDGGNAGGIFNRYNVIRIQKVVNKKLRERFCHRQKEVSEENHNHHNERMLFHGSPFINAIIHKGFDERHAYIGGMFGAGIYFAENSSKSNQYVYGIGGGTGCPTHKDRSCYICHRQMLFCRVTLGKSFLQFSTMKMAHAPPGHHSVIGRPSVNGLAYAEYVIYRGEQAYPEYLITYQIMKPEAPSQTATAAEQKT

cells = conditions: Homo sapiens, COLO 320DM
[7] = target: T1, Poly [ADP-ribose] polymerase tankyrase-1; assay: Inhibition of human TNKS1 (1030 to 1317 residues) measured after 20 hrs
[8] = target: T2, Poly [ADP-ribose] polymerase tankyrase-2 (Homo sapiens, UniProt Q9H2K2); assay: Inhibition of human TNKS2 (873 to 1162 residues) measured after 15 hrs in presence of NAD+ by fluorescence assay
T2 sequence (Q9H2K2 whole entry): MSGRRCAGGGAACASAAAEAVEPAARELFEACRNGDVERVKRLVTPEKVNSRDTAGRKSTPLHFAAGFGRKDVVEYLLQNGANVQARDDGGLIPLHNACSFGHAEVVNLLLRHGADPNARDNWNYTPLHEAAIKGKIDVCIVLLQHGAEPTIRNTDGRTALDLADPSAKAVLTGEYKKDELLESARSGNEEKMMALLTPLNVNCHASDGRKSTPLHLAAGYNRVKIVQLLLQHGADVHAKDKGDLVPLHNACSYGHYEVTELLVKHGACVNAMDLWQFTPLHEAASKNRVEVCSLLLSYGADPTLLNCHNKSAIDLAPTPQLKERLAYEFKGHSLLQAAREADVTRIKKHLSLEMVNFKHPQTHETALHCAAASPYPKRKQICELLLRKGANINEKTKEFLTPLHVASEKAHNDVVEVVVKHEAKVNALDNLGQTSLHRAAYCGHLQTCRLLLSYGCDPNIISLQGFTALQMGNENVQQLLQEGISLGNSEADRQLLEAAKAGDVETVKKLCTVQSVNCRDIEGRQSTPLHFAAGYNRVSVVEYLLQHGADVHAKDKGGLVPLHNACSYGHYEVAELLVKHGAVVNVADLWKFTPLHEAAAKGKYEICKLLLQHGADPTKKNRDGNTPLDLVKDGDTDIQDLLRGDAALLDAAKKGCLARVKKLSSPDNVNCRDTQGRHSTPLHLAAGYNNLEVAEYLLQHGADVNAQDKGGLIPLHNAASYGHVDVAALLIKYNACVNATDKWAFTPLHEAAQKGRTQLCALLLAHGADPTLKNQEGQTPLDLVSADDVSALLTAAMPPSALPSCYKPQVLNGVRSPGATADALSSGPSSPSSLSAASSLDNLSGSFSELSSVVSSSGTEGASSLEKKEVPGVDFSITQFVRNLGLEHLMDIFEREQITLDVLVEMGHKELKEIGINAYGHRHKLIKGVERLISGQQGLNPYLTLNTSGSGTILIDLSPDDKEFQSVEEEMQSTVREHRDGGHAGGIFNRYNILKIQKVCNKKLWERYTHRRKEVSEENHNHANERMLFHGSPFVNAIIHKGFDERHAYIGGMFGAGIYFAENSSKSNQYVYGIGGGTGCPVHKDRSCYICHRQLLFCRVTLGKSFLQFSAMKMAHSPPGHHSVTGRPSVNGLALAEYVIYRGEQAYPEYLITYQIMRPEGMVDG

[9] = Chemical stability of the compound at pH 7.4 measured after 24 hrs; format: physicochemical; conditions: buffer, read-out: Stability
[10] = target: T2, Poly [ADP-ribose] polymerase tankyrase-2; assay: Inhibition of TNKS2 (unknown origin)
[11] = target: Poly [ADP-ribose] polymerase 1 (Homo sapiens, UniProt P09874); assay: Inhibition of human recombinant PARP1 incubated for 30 mins in the presence of NAD
Poly [ADP-ribose] polymerase 1, sequence (P09874 whole entry): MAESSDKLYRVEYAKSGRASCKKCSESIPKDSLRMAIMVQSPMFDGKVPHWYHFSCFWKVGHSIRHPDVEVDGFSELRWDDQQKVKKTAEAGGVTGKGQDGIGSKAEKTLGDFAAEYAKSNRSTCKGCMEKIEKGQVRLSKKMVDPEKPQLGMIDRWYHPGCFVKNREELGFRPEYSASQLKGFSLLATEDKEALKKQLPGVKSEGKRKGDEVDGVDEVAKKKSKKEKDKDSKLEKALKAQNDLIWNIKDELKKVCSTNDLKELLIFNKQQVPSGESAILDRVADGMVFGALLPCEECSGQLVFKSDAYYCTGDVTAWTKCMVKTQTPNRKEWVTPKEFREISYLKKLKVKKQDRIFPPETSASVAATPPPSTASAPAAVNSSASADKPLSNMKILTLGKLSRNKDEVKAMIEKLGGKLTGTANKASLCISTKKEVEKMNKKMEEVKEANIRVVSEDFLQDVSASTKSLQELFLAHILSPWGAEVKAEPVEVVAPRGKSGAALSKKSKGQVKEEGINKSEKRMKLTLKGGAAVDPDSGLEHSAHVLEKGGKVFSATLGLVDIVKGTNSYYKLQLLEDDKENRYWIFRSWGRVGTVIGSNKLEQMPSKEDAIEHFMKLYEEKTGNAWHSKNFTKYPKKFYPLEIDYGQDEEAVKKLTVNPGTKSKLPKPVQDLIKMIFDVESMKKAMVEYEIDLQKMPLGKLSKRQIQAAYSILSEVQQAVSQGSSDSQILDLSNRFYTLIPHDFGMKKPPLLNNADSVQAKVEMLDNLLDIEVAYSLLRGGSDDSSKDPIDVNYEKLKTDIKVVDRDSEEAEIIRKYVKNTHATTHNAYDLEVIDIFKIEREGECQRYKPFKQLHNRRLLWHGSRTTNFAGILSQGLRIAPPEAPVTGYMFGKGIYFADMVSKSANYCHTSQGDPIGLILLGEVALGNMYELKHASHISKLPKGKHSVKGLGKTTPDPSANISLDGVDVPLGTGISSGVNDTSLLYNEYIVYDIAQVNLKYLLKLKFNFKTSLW

[12] = target: Poly [ADP-ribose] polymerase 2 (Homo sapiens, UniProt Q9UGN5); assay: Inhibition of PARP2 (unknown origin) using NAD as substrate incubated for 1 min
Poly [ADP-ribose] polymerase 2, sequence (Q9UGN5 whole entry): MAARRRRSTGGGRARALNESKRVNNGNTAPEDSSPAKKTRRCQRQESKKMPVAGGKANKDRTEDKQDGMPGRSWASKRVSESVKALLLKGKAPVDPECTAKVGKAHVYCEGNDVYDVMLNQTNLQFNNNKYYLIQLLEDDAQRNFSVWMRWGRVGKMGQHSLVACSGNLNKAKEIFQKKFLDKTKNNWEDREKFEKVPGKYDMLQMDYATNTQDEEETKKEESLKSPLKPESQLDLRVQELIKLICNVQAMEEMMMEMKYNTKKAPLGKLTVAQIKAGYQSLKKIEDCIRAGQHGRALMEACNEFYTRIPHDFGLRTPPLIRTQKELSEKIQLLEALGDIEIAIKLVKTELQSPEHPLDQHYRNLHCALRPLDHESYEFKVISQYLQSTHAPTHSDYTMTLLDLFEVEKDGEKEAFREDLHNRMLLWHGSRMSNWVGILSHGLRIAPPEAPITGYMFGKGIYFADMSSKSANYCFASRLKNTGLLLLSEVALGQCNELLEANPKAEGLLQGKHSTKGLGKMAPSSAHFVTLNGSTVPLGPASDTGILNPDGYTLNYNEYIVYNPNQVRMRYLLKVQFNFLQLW

[13] = Solubility of the compound at pH 7.4; format: physicochemical; conditions: buffer
[14] = Oral bioavailability in mouse at 2.5 mg/kg; format: ADME, organism-based; conditions: in vivo
[15] = Oral bioavailability in mouse; format: ADME, organism-based; conditions: in vivo
[16] = Oral bioavailability in rat at 2 mg/kg; format: ADME, organism-based; conditions: in vivo
[17] = Oral bioavailability in dog; format: ADME, organism-based, Canis lupus familiaris; conditions: in vivo
[18] = In vivo inhibition of MMTV-WNT1 in mouse model assessed as reduction in tumor growth at 0.3 mg/kg, po administered once daily for 2 weeks; format: functional; conditions: 336 h
[19] = In vivo inhibition of MMTV-WNT1 in mouse model assessed as reduction in tumor growth at 1 mg/kg, po administered once daily for 2 weeks; format: functional; conditions: 336 h
[20] = In vivo inhibition of MMTV-WNT1 in mouse model assessed as reduction in tumor growth at 3 mg/kg, po administered once daily for 2 weeks; format: functional; conditions: 336 h
[21] = target: T2, Poly [ADP-ribose] polymerase tankyrase-2; assay: Binding affinity to TNKS2 (unknown origin) assessed as inhibition constant
[22] = target: T2, Poly [ADP-ribose] polymerase tankyrase-2; assay: Binding affinity to human TNKS2 ARC4 assessed as dissociation constant
MG-63 = assay: Antitumor activity against human MG-63 cells xenografted in osteosarcoma mouse model assessed as tumor growth inhibition at 5 mg/kg relative to control; format: functional; conditions: read-out: TGI
[23] = Oral bioavailability in mouse at 10 mg/kg; format: ADME, organism-based; conditions: in vivo
HEK293 = assay: Antitumor activity against human HEK293 cells xenografted in […] assessed as tumor growth inhibition at 10 mg/kg relative to control; format: functional; conditions: read-out: TGI
[24] = In vivo inhibition of WNT1 in mouse model assessed as reduction in tumor volume by measuring T/C ratio at 1 mg/kg; format: functional
[25] = In vivo inhibition of WNT1 in mouse model assessed as reduction in tumor volume by measuring T/C ratio at 3 mg/kg; format: functional

Cc1ccc2nc(NC(=O)CSc3nc4c(c(=O)n3-c3ccccc3)SCC4)sc2c1
IC50 [1]: 27 nM

Cc1cc(-c2ccc(CC(=O)Nc3ccc(-c4cccnc4)cc3)cc2)ccn1
IC50 [1]: 0.074 nM
concentration at 24 h [2]: 1 nM

O=C1[C@H](Cc2ccc(O)cc2)N2C(=O)CCN(C(=O)NCc3ccccc3)[C@H]2CN1Cc1cccc2ccccc12
IC50 [3]: 3000 nM

COc1ccccc1NC(=O)c1ccc(NC(=O)CCc2nc3ccccc3c(=O)[nH]2)cc1
IC50 [4]: 160 nM
half-life [5]: 0.667 h

O=C(CSc1nc2c(c(=O)n1-c1ccccc1)SCC2)Nc1ccc(-c2ccccc2)cn1
EC50 (HeLa): 0.5 nM

O=C(CCC1CCCC1)Nc1nnc2n1CCS2
IC50 [6]: 1900 nM

Nc1nonc1NC(=O)Cn1c2ccccc2c2nc3nonc3nc21
IC50 (cells): 31000 nM

O=C(O)CCCn1c2ccccc2c2nc3nonc3nc21
IC50 (cells): 15000 nM

CN1CCCc2c1cc(-c1ccc(Br)cc1)[nH]c2=O
IC50 [7]: 423 nM
IC50 [8]: 6.1 nM

Cc1cc(-c2ccc(OC(C)C(=O)Nc3ccc(-c4cnccn4)cn3)cc2)ccn1 (centres undefined)
IC50 [1]: 0.11 nM
remaining at 24 h [9]: 71%

COc1ccc(C2(CNC(=O)c3ccc(NC(=O)c4ccco4)cc3)CCOCC2)cc1
IC50 [10]: 830 nM

Cc1cc(-c2ccc(CC(=O)Nc3ccc4c(c3)[nH]c3ccccc34)cc2)ccn1
IC50 [1]: 2.3 nM

COc1cccc2c(=O)[nH]c(-c3ccc(C)cc3)cc12
IC50 [7]: 30 nM
IC50 [8]: 5.1 nM
IC50 [11]: > 10000 nM
IC50 [12]: > 10000 nM

O=C(CN1CCCC2=C1C(=O)N(C1CC1)C2=O)Nc1ccc(-c2cccnc2)nn1
solubility [13]: 60 µg/mL (≈ 148 µM)
bioavailability [14]: 81%

C[C@H](Nc1ccc(-c2ccnn2C)nc1)C(=O)Nc1ccc(-c2cccnc2)cn1
solubility [13]: 73 µg/mL (≈ 183 µM)
bioavailability [14]: 100%

CN1C(=O)C2=C(C1=O)N(CC(=O)Nc1ccc(-c3nccs3)cc1)CCC2
solubility [13]: 15 µg/mL (≈ 39.2 µM)

O=C(COc1ccc(-n2ccnc2)cc1)Nc1ccc(-c2ccccc2)cc1
solubility [13]: < 1 µg/mL
bioavailability [14]: < 1%

CCCn1c(SCC(=O)Nc2nc3ccc(OC)cc3s2)nnc1-c1ccncc1
IC50 [1]: 12 nM

CC(=O)N1CCN(c2ccc(NC(=O)Cc3cnc(-c4ccnc(F)c4)c(C)c3)nc2)CC1
IC50 [1]: 0.8 nM
bioavailability [15]: 72%
bioavailability [16]: 72%
bioavailability [17]: 96%
inhibition in vivo at 0.3 mg/kg [18]: 15%
inhibition in vivo at 1 mg/kg [19]: 74%
inhibition in vivo at 3 mg/kg [20]: 84%

NS(=O)(=O)c1ccc(NC(=S)N2CCN(C/C=C/c3ccccc3)CC2)cc1
IC50 (cells): 2000 nM

CCc1ccc(OCC(=O)Nc2sc(C)c(C)c2C(N)=O)c(F)c1
Ki [21]: 27900 nM

CC(=O)N[C@@H](CCCNC(=N)N)C(=O)N[C@@H](CCC(=O)O)C(=O)N[C@H]1CCCCn2cc(nn2)CCCCCc2cn(nn2)CCCC[C@H](C(=O)N[C@H](CCC(=O)O)C(N)=O)NC(=O)CNC(=O)[C@@H](CC(=O)O)NC(=O)CNC1=O
Kd [22]: 2800 nM

Cc1cc(-c2ccc(CNC(=O)c3ccc4c(c3)[nH]c3ccccc34)cc2F)ccn1
IC50 [1]: 0.5 nM

N#Cc1ccc(Oc2ccc(NC(=O)CCSc3nc4ccccc4c(=O)[nH]3)cc2)cc1
IC50 [4]: 1.9 nM
half-life [5]: 2.8 h

COc1ccc(-n2c(C(=O)NCC(=O)Nc3nc4ccc(OC)cc4s3)nc3ccccc3c2=O)cc1
IC50 [1]: 58 nM

CN(C)c1ccc2c(-c3ccc(C(=O)NCCCCCC(=O)N[C@@H](CCCNC(=N)N)C(=O)N[C@@H](CCC(=O)O)C(=O)N[C@H]4CCn5cc(nn5)-c5cc(C(=O)O)cc(c5)C5=CN(CC[C@@H](C(=O)N[C@@H](CCC(=O)O)C(N)=O)NC(=O)CNC(=O)[C@H](CC(=O)O)NC(=O)CNC4=O)NN5)cc3C(=O)[O-])c3ccc(=[N+](C)C)cc-3oc2c1
Kd [22]: 440 nM

O=C(Nc1cccc2cccnc12)c1ccc(N2C(=O)[C@@H]3[C@H](C2=O)[C@@H]2C=C[C@H]3C2)cc1
inhibition in vivo at 5 mg/kg (MG-63): 71%

Cn1c(=O)c2c(ncn2CC(=O)Nc2ccc(-c3ccccc3)nn2)n(C)c1=O [ETC-159]
bioavailability [23]: 100%
inhibition in vivo at 10 mg/kg (HEK293): 94%

Cc1cc(-c2ncc(CC(=O)Nc3ccc(-c4cnccn4)cn3)cc2C)ccn1 [WNT-974]
IC50 [1]: 1 nM
inhibition in vivo at 1 mg/kg [24]: 47%
inhibition in vivo at 3 mg/kg [25]: 63%
